The values below come from patent US20030232871A1 (priority 2002, published 2003).

The nature of data set [1]: True density by helium pycnometry. Type of data set: physicochemical.
A short description of data set [2]: Moisture sorption (Dynamic Vapor Water Sorption analyzer). It counts as physicochemical. As to conditions: 25° C.; for hygroscopicity compared with Form A: up to about 80% RH. On the procedure: Moisture sorption data were collected at 25° C. from 0% to 80% RH using a Surface Measurement Systems Dynamic Vapor Water Sorption analyzer. The equilibrium window was for a dm/dT of 0.0003 or a maximum time of 120 minutes.

A short description of data set [3]: Thermodynamic parameters from eutectic melting data (ΔG−T and ΔG/T−1/T plots). Type of data set: physicochemical. The following applies: for Tt (transition temperature): LT form to HT = Form A, calculated as Tt=ΔH/ΔS; for ΔH / ΔS: transition of low temperature form (LT) to HT = Form A, derived from eutectic melting data. On the procedure: Based on the Heat of Transition Rule both Forms B and E are believed to be enantiotropically related to Form A, meaning there is a change in the stability relationship between the forms around a transition temperature Tt. Determination of Tt for Forms B and E with respect to Form A was performed by the use of eutectic melting data. Eutectics were formed between a reference compound (RC) and each of Forms A, B and E of parecoxib sodium. Subsequently heat of fusion data were used to derive the free energy difference between the crystal forms at the eutectic temperature (equation I): xej(Gj-Gi)Tei=Δ[…])]} (equation I) wherein xej and xei are the mole fraction of crystal forms j and i respectively in the eutectic; (Gj-Gi) is the free energy difference between crystal forms i and j at Tei; ΔHmej and ΔHmei are the enthalpy of eutectic melting of crystal forms j and i respectively; Tei and Tej are the temperatures of eutectic melting of crystal forms i and j respectively; ΔCpij is the heat capacity change across the eutectic melt; and R is the ideal gas constant. […] By definition, the free energy difference between crystal forms is zero at the transition temperature. The transition temperature given in Table 5 above was calculated according to equation II: Tt=ΔH/ΔS (equation II)

Data set [4] can be described thus: Solution calorimetry (heat of solution). It counts as physicochemical. The following applies: LT form / Form A pair.
The target in the next data set is COX-1 (Homo sapiens, UniProt P23219). The following applies: background statement; cited from earlier work.
Sequence of COX-1 (P23219 24-599): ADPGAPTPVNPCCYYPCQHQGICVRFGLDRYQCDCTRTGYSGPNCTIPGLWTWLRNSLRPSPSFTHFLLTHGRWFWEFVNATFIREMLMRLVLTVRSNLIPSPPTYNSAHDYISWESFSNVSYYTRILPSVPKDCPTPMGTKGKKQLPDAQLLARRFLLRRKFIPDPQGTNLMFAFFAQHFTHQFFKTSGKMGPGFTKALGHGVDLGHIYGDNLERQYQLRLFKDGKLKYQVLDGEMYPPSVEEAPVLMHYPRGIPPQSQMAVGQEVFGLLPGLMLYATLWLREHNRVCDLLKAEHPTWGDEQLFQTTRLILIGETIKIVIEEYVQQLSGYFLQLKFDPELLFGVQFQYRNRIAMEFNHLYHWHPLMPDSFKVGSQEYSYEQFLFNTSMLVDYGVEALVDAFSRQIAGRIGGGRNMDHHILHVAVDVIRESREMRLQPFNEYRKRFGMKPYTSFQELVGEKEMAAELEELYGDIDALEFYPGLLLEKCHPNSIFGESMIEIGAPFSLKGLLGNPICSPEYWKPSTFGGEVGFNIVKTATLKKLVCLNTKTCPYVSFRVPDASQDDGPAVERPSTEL

Molecules are shown by their SMILES. “Also recorded” adds a separate entry of the source.

Regarding `CCC(=O)[N-]S(=O)(=O)c1ccc(-c2c(-c3ccccc3)noc2C)cc1.[Na+]` [Form A, parecoxib sodium], in data set [1], the true density was 1.34 ± 0.01 g/mL. Moreover, the moisture sorbed result in data set [2] (0-60% RH range) is on record as “less than 1%”. Further, the “behaviour above 60% RH” value in data set [2] (above 60% RH) was “deliquesced; also recorded: greater tendency to sorb water and even to deliquesce”.

With `CCC(=O)[N-]S(=O)(=O)c1ccc(-c2c(-c3ccccc3)noc2C)cc1.[Na+]` [Form B, parecoxib sodium], in data set [3], the “Tt (transition temperature)” value was 163.3 °C, the ΔH was 3.975 kcal/mol and the ΔS is given as 38.1 J/mole/K. Moreover, the “ΔH from heat of solution data” value in data set [4] stood at 3.666 kcal/mol. This compound also had a true density in data set [1] of 1.46 ± 0.01 g/mL. In addition, the “hygroscopicity compared with Form A” value in data set [2] is given as “less hygroscopic than Form A”.

Consider `CCC(=O)[N-]S(=O)(=O)c1ccc(-c2c(-c3ccccc3)noc2C)cc1.[Na+]` [Form E, parecoxib sodium], for which, in data set [3], the “Tt (transition temperature)” value was 163.9 °C, the ΔH stood at 4.099 kcal/mol and the ΔS amounted to 39.2 J/mole/K. Moreover, the “ΔH from heat of solution data” value in data set [4] turned out to be 4.288 kcal/mol. The true density in data set [1] is 1.42 ± 0.01 g/mL. In addition, the “hygroscopicity compared with Form A” value in data set [2] is given as “less hygroscopic than Form A”.

Regarding `CCC(=O)NS(=O)(=O)c1ccc(-c2c(-c3ccccc3)noc2C)cc1` [Parecoxib], at COX-1, the “in vitro inhibitory activity against COX-1” value is given as “weak”.

In the case of `Cc1onc(-c2ccccc2)c1-c1ccc(S(N)(=O)=O)cc1` [valdecoxib], the “in vitro inhibitory activity against COX-1” value on COX-1 was “weak”.
